Experimental data: publication PMC10541456, “A phase I, single‐center, open‐label study to investigate the absorption, distribution, metabolism and excretion of encorafenib following a single oral dose of 100 mg [ ^14C] encorafenib in healthy male subjects” (Pharmacology Research & Perspectives, 2023)
Where “and” joins values, the source holds several entries; their conditions need not be identical. Equal values may be shown once.

Legend:
CYP2C19 = system: CYP2C19; parameters: method as in earlier work; conditions: cited from earlier work
[1] = Total radioactivity PK in plasma; type: in vivo, human
Method: Venous blood samples (18 mL/time point) were collected by either direct venipuncture or from an indwelling cannula inserted into a vein of the forearm into tubes containing potassium ethylene diamine tetra acetic acid (K2‐EDTA) at the following times for metabolite characterization, total radioactivity and parent drug analysis: Pre‐dose, 0.5, 1, 1.5, 2, 3, 4, 6, 8, 12, 24, 48, 72, 96, 120 and 144 h post‐dose. Urine samples were collected into pre‐weighed, uniquely labeled containers pre‐dose (before drug administration) and at the following intervals: 0–4, 4–8, 8–24, 24–48, 48–72, 72–96, 96–120 and 120–144 h post‐dose. Feces samples were collected quantitatively into uniquely labeled, polypropylene containers pre‐dose (before drug administration) and individually until 144 h post‐dose. Urine and feces samples were frozen at −20°C and blood samples at −70°C.
Analysis of total radioactivity data in plasma, blood, feces, and urine was performed by Covance Laboratories Inc. All sample combustions were performed in a Model 307 Sample Oxidizer (Packard Instrument Company) and the resulting ^14CO2 was trapped in a mixture of Perma Fluor™ (Perkin Elmer) and Carbo Sorb® (Perkin Elmer). Oxidation efficiency was evaluated on each day of sample combustion by analyzing a commercial radiolabeled standard both directly in a scintillation cocktail and by oxidation. […] EcoLite™(+) scintillation cocktail was used for samples analyzed directly. All samples were analyzed for radioactivity in Model 2900TR or 2910TR liquid scintillation counters (Packard Instrument Company) for at least 5 min or 100 000 counts. Each sample was homogenized or mixed before radioanalysis (unless the entire sample was used for analysis). All samples were analyzed in duplicate or triplicate, as applicable, if sample size allowed. If results from sample replicates (calculated as ^14C disintegrations per minute (dpm)/g sample) differed by more than 10% from the mean value and sample aliquots had radioactivity greater than 200 dpm, the sample was re‐homogenized or remixed and reanalyzed (if the sample size permitted).
Blood samples were mixed and duplicate aliquots of each (approximately 0.4 g) were combusted and analyzed by liquid scintillation […]. Plasma and urine samples were separately mixed and duplicate weighed aliquots of each (approximately 0.4 g for plasma and 0.2 g for urine) were analyzed directly by LSC. Urine volumes provided by the Covance clinical research unit were entered as a weight assuming a specific gravity of 1 g/mL. Feces samples were analyzed individually (samples were not combined by interval) and the weight of each individual sample was recorded. A weighed amount of methanol:water (20:80, v:v; approximately 2 to 3 times the sample weight, such that the homogenate weight:sample weight ratio was approximately 3 to 4) was added and the sample was mixed and homogenized using a probe type homogenizer. Triplicate‐weighed aliquots (approximately 0.2 g) were combusted and analyzed by LSC. The empty treatment vial from each subject was analyzed by adding a weighed amount of methanol to each vial and analyzing duplicate weighed aliquots (approximately 0.5 g) of each extract by LSC. Residual radioactivity recovered from each treatment vial was subtracted from the dose administered to the appropriate subject.
The total radioactivity in blood and plasma was determined by LSC. Nominal sampling time points were used for deriving total radioactivity blood and plasma PK data. […]

For `COC(=O)N[C@@H](C)CNc1nccc(-c2cn(C(C)C)nc2-c2cc(Cl)cc(NS(C)(=O)=O)c2F)n1` [encorafenib], the “Contribution of CYP2C19 to metabolism” value (CYP2C19) is listed as 16%, the “Cmax, total radioactivity” value ([1]; Mean (SD)) is listed as 2170 (107) ngEq/mL and the “T1/2, total radioactivity” value ([1]; Mean (SD)) is listed as 5.1 h and 5.1 (1.30) h. The “Cmax, total radioactivity” value ([1]; Median (Minimum–Maximum)) was 2190 (2020–2330) ngEq/mL, the “T1/2, total radioactivity” value ([1]; Median (Minimum–Maximum)) was 4.5 (7.1–4.3) h and the “Tmax, total radioactivity” value ([1]; Median (Minimum–Maximum)) was 1.3 h.
